Experimental data: US8748624B2, “Picolinamido-propanoic acid derivatives useful as glucagon receptor antagonists” (Janssen Pharmaceutica NV, priority 2011, dated 2014)

Assays:
[1] = biological target: human glucagon receptor (GCGR) (Homo sapiens (Human), UniProt P47871); assay: Inhibition of 125I-glucagon binding to membranes from HEK293 cells expressing the human glucagon receptor; details: membranes of hGluc-1 HEK cells, 125I-glucagon 0.3 nM, 2 hours room temperature; IC50 converted to Ki; average if tested more than once
Procedure, shortened: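 Compound displacement of ¹²⁵I-glucagon (0.3 nM) was run for 2 h at room temperature in 50 mM HEPES pH 7.4 with 5 mM MgCl2, 1 mM CaCl2 and 0.2% BSA, using 6 μg/well membranes from stably transfected hGCGR HEK293 cells. Filter-bound counts gave IC50s, expressed as Ki.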

[2] = biological target: human GCGR (Homo sapiens (Human), UniProt P47871); assay: Cellular functional assay, cAMP readout (glucagon-stimulated cAMP in HEK293 cells expressing human GCGR); format: cell-based; details: hGluc-1 HEK cells, LANCE TR-FRET, IC50 converted to Ki, average if tested more than once
Procedure, shortened: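 HEK293 cells stably transfected with full-length human GCGR were exposed to compound for 30 min before a 5-min challenge with […] (final) glucagon. Readout was TR-FRET (LANCE) cAMP versus standard curve; IC50s fitted by non-linear regression and converted to Ki values.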

Chain of human GCGR (P47871 26-477): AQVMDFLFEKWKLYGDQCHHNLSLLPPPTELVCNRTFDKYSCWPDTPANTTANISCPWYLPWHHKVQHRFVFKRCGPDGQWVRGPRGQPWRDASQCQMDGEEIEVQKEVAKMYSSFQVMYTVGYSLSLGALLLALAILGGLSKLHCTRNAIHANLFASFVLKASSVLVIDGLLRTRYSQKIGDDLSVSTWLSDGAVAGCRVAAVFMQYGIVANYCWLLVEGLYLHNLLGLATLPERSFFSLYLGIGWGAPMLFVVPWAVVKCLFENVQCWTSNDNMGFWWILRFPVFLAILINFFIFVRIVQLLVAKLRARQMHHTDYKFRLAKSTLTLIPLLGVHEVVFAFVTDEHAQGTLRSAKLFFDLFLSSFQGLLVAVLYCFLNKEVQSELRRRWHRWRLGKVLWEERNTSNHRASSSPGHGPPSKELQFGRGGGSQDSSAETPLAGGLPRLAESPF
Chain of human glucagon receptor (GCGR) (P47871 26-477): as above

| Ki [1] [µM] | Ki [2] [µM] | SMILES |
| --- | --- | --- |
| 0.0157 | 0.06 | O=C(O)CCNC(=O)c1ccc(-c2cc(Cl)ccc2CNc2ccc(-c3ccc(C(F)(F)F)cc3Cl)cc2)cn1 [Compound 147, 3-(5-(5-chloro-2-(((2′-chloro-4′-(trifluoromethyl)-[1,1′-biphenyl]-4-yl)amino)methyl)phenyl)picolinamido)propanoic acid] |
| 0.0254 | 0.0844 | O=C(O)CCNC(=O)c1ccc(-c2cc(F)c(F)cc2CNc2ccc(-c3ccc(Cl)cc3F)c(Cl)c2)cn1 [Compound 104, 3-(5-(2-(((2,4′-dichloro-2′-fluoro-[1,1′-biphenyl]-4-yl)amino)methyl)-4,5-difluorophenyl)picolinamido)propanoic acid] |
| 0.036 | 0.117 | O=C(O)CCNC(=O)c1ccc(-c2cc(Cl)ccc2CNc2ccc(-c3ccc(F)c(Cl)c3)c(Cl)c2)cn1 [Compound 171, 3-(5-(5-chloro-2-(((2,3′-dichloro-4′-fluoro-[1,1′-biphenyl]-4-yl)amino)methyl)phenyl)picolinamido)propanoic acid] |
| 0.0534 | 0.295 | O=C(O)CCNC(=O)c1ccc(-c2cc(Cl)ccc2CNc2ccc(-c3ccc(Cl)c(F)c3)c(F)c2)cn1 [Compound 93, 3-(5-(5-chloro-2-(((4′-chloro-2,3′-difluoro-[1,1′-biphenyl]-4-yl)amino)methyl)phenyl)picolinamido)propanoic acid] |
| 0.0583 | 0.65 | N#Cc1cc(NCc2cc(F)c(F)cc2-c2ccc(C(=O)NCCC(=O)O)nc2)ccc1-c1ccc(Cl)c(C(F)(F)F)c1 [Compound 113, 3-(5-(2-(((4′-chloro-2-cyano-3′-(trifluoromethyl)-[1,1′-biphenyl]-4-yl)amino)methyl)-4,5-difluorophenyl)picolinamido)propanoic acid] |
| 0.04 | 0.151 | Cc1ccc(CNc2ccc(-c3ccc(Cl)cc3)cc2)c(-c2ccc(C(=O)NCCC(=O)O)nc2)c1 [Compound 68, 3-(5-(2-(((4′-chloro-[1,1′-biphenyl]-4-yl)amino)methyl)-5-methylphenyl)picolinamido)propanoic acid] |
| 0.0335 | 0.113 | C=C(C)c1ccc(CNc2ccc(-c3ccc(F)cc3)cc2)c(-c2ccc(C(=O)NCCC(=O)O)nc2)c1 [Compound 157, 3-(5-(2-(((4′-fluoro-[1,1′-biphenyl]-4-yl)amino)methyl)-5-(prop-1-en-2-yl)phenyl)picolinamido)propanoic acid] |
| 0.028 | 0.0316 | O=C(O)CCNC(=O)c1ccc(-c2cc(C(F)(F)F)ccc2CNc2ccc(-c3ccc(Cl)cc3)c(Cl)c2)cn1 [Compound 28, 3-(5-(2-(((2,4′-dichloro-[1,1′-biphenyl]-4-yl)amino)methyl)-5-(trifluoromethyl)phenyl)picolinamido)propanoic acid] |
| 0.0168 | 0.0341 | O=C(O)CCNC(=O)c1ccc(-c2cc(Cl)ccc2CNc2ccc(-c3ccc(Cl)cc3Cl)c(Cl)c2)cn1 [Compound 51, 3-(5-(5-chloro-2-(((2,2′,4′-trichloro-[1,1′-biphenyl]-4-yl)amino)methyl)phenyl)picolinamido)propanoic acid] |
| > 5.4 | > 10.4 | CC(C)(C)c1ccc(-c2ccc(NCc3ccccc3-c3ccc(C(=O)NCCC(=O)O)nc3)cc2)cc1 [Compound 3, 3-(5-(2-(((4′-(tert-butyl)-[1,1′-biphenyl]-4-yl)amino)methyl)phenyl)picolinamido)propanoic acid] |
| 0.0443 | 0.37 | O=C(O)CCNC(=O)c1ccc(-c2cc(Cl)ccc2CNc2ccc(-c3ccc(F)cc3)c(F)c2)cn1 [Compound 88, 3-(5-(5-chloro-2-(((2,4′-difluoro-[1,1′-biphenyl]-4-yl)amino)methyl)phenyl)picolinamido)propanoic acid] |
| 0.0957 | 0.5 | Cc1cc(-c2ccc(NCc3cc(F)c(F)cc3-c3ccc(C(=O)NCCC(=O)O)nc3)cc2C#N)ccc1F [Compound 115, 3-(5-(2-(((2-cyano-4′-fluoro-3′-methyl-[1,1′-biphenyl]-4-yl)amino)methyl)-4,5-difluorophenyl)picolinamido)propanoic acid] |
| 0.0184 | 0.0601 | O=C(O)CCNC(=O)c1ccc(-c2cc(C(F)(F)F)ccc2CNc2ccc(-c3ccc(Cl)cc3)cc2)cn1 [Compound 44, 3-(5-(2-(((4′-chloro-[1,1′-biphenyl]-4-yl)amino)methyl)-5-(trifluoromethyl)phenyl)picolinamido)propanoic acid] |
| 0.0242 | 0.0224 | Cc1cc(Cl)ccc1-c1ccc(NCc2cc(Cl)c(C(F)(F)F)cc2-c2ccc(C(=O)NCCC(=O)O)nc2)cc1 [Compound 77, 3-(5-(4-chloro-2-(((4′-chloro-2′-methyl-[1,1′-biphenyl]-4-yl)amino)methyl)-5-(trifluoromethyl)phenyl)picolinamido)propanoic acid] |
| 0.0378 | 0.161 | CC(=O)c1ccc(-c2ccc(NCc3ccc(Cl)cc3-c3ccc(C(=O)NCCC(=O)O)nc3)cc2)cc1 [Compound 156, 3-(5-(2-(((4′-acetyl-[1,1′-biphenyl]-4-yl)amino)methyl)-5-chlorophenyl)picolinamido)propanoic acid] |
| 0.0614 | 0.158 | O=C(O)CCNC(=O)c1ccc(-c2cc(Cl)ccc2C(=O)Nc2ccc(-c3ccc(F)cc3)cc2)cn1 [Compound 20, 3-(5-(5-chloro-2-((4′-fluoro-[1,1′-biphenyl]-4-yl)carbamoyl)phenyl)picolinamido)propanoic acid] |
| 0.0363 | 0.0681 | Cc1ccc(C(=O)Nc2ccc(-c3ccc(Cl)cc3)cc2)c(-c2ccc(C(=O)NCCC(=O)O)nc2)c1 [Compound 145, 3-(5-(2-((4′-chloro-[1,1′-biphenyl]-4-yl)carbamoyl)-5-methylphenyl)picolinamido)propanoic acid] |
| 0.103 | 0.495 | O=C(O)CCNC(=O)c1ccc(-c2cc(F)ccc2CNc2ccc(-c3ccc(Cl)c(Cl)c3)c(F)c2)cn1 [Compound 53, 3-(5-(2-(((3′,4′-dichloro-2-fluoro-[1,1′-biphenyl]-4-yl)amino)methyl)-5-fluorophenyl)picolinamido)propanoic acid] |
| 0.104 | 2 | O=C(O)CCNC(=O)c1ccc(-c2cc(Cl)ccc2CNc2ccc(-c3ccccc3F)cc2)cn1 [Compound 133, 3-(5-(5-chloro-2-(((2′-fluoro-[1,1′-biphenyl]-4-yl)amino)methyl)phenyl)picolinamido)propanoic acid] |
| 0.0304 | 0.062 | O=C(O)CCNC(=O)c1ccc(-c2cc(C(F)(F)F)ccc2CNc2ccc(-c3ccc(C(F)(F)F)cc3)cc2)cn1 [Compound 29, 3-(5-(5-(trifluoromethyl)-2-(((4′-(trifluoromethyl)-[1,1′-biphenyl]-4-yl)amino)methyl)phenyl)picolinamido)propanoic acid] |
| 0.024 | 0.025 | O=C(O)CCNC(=O)c1ccc(-c2cc(C(F)(F)F)c(Cl)cc2CNc2ccc(-c3ccc(Cl)cc3)c(Cl)c2)cn1 [Compound 78, 3-(5-(4-chloro-2-(((2,4′-dichloro-[1,1′-biphenyl]-4-yl)amino)methyl)-5-(trifluoromethyl)phenyl)picolinamido)propanoic acid] |
| 0.0261 | 0.32 | O=C(O)CCNC(=O)c1ccc(-c2cc(F)c(F)cc2CNc2ccc(-c3ccc(Cl)c(C(F)(F)F)c3)c(Cl)c2)cn1 [Compound 106, 3-(5-(2-(((2,4′-dichloro-3′-(trifluoromethyl)-[1,1′-biphenyl]-4-yl)amino)methyl)-4,5-difluorophenyl)picolinamido)propanoic acid] |
| 0.0412 | 0.265 | O=C(O)CCNC(=O)c1ccc(-c2cc(Cl)ccc2CNc2ccc(-c3ccc(Cl)cc3Cl)cc2F)cn1 [Compound 11, 3-(5-(5-chloro-2-(((2′,4′-dichloro-3-fluoro-[1,1′-biphenyl]-4-yl)amino)methyl)phenyl)picolinamido)propanoic acid] |
| 0.0485 | 0.22 | COc1cc(NCc2ccc(Cl)cc2-c2ccc(C(=O)NCCC(=O)O)nc2)ccc1-c1ccc(C(F)(F)F)cc1 [Compound 54, 3-(5-(5-chloro-2-(((2-methoxy-4′-(trifluoromethyl)-[1,1′-biphenyl]-4-yl)amino)methyl)phenyl)picolinamido)propanoic acid] |
| 0.0846 | 0.7 | O=C(O)CCNC(=O)c1ccc(-c2cc(Cl)ccc2CNc2ccc(-c3cccc(OC(F)(F)F)c3)cc2)cn1 [Compound 129, 3-(5-(5-chloro-2-(((3′-(trifluoromethoxy)-[1,1′-biphenyl]-4-yl)amino)methyl)phenyl)picolinamido)propanoic acid] |
| 0.0269 | 0.0692 | Cc1ccc(-c2ccc(NCc3ccc(Cl)cc3-c3ccc(C(=O)NCCC(=O)O)nc3)cc2Cl)cc1 [Compound 172, 3-(5-(5-chloro-2-(((2-chloro-4′-methyl-[1,1′-biphenyl]-4-yl)amino)methyl)phenyl)picolinamido)propanoic acid] |
| 0.0213 | 0.0598 | O=C(O)CCNC(=O)c1ccc(-c2cc(C(F)(F)F)ccc2CNc2ccc(-c3ccc(F)cc3Cl)c(Cl)c2)cn1 [Compound 33, 3-(5-(2-(((2,2′-dichloro-4′-fluoro-[1,1′-biphenyl]-4-yl)amino)methyl)-5-(trifluoromethyl)phenyl)picolinamido)propanoic acid] |
| 0.0713 | 1.75 | O=C(O)CCNC(=O)c1ccc(-c2cc(Cl)ccc2CNc2ccc(-c3ccccc3C(F)(F)F)cc2)cn1 [Compound 131, 3-(5-(5-chloro-2-(((2′-(trifluoromethyl)-[1,1′-biphenyl]-4-yl)amino)methyl)phenyl)picolinamido)propanoic acid] |
